Source: paper PMC7038073, “Substituted Piperazines as Novel Potential Radioprotective Agents” (Molecules, 2020)

Legend:
[1] = WST-1 cytotoxicity test, Jurkat; assay type: cell-based; settings: human, Jurkat cells, read-out: relative viability (%) compared to untreated control
Procedure: (§1) In this study, the cytotoxic effects of nine new compounds (2, 3, 4, 5, 6, 7, 8, 9, 10) were tested on 10 human cell lines (nine cancer and one non-cancer cell line). The cell lines were treated with each compound at concentrations of 10 µM and 100 µM for 48 h. The proliferation capacity of the treated cells was determined by WST-1 test and compared against the proliferation rate of the untreated control cells (100%).
(§2) The cell lines Jurkat, MOLT-4, A2780, A549, HT-29, PANC-1, HeLa, MCF-7, SAOS-2, and MRC-5 (all purchased from Sigma Aldrich, Czech Republic) were included in this study. All cell lines were maintained according to the provider’s guidelines, and plated and treated in 96-well plates (500 to 30 × 10^3 cells per well). The tested compounds 2, 3, 4, 5, 6, 7, 8, 9, and 10 were dissolved in 0.1% DMSO and kept in 10 mM stock solutions. Before use, the stock solution was diluted in culture media at ratios of 1:100 and 1:1000. The studied cell lines were treated with the compounds 2, 3, 4, 5, 6, 7, 8, 9, and 10 at concentrations of 10 and 100 µM for 48 h. Control cells were tested in culture media with and without DMSO (0.1%). The cells were also treated with 1 µM doxorubicin as a cytotoxicity control.
(§3) The WST-1 (2-(4-iodophenyl)-3-(4-nitrophenyl)-5-(2,4-disulfophenyl)-2H-tetrazolium, monosodium salt) test (Roche, Mannheim, Germany) was used according to the manufacturer’s protocol to determine cell viability in all 10 cell lines 48 h after treatment with the tested compounds. The cells were analyzed in a Tecan Infinite M200 spectrometer (Tecan Group, Männedorf, Switzerland) at 440 nm.

[2] = WST-1 cytotoxicity test, MOLT-4; assay type: cell-based; settings: human, MOLT-4 cells, read-out: relative viability (%) compared to untreated control; for viability at 48 h, 10 µM: MOLT-4, 10 µM
Procedure: as §1, §2, §3

[3] = WST-1 cytotoxicity test, A549; assay type: cell-based; settings: human, A549 cells, read-out: relative viability (%) compared to untreated control; for viability at 48 h, 10 µM: A549, 10 µM
Procedure: as §1, §2, §3

[4] = WST-1 cytotoxicity test, HT-29; assay type: cell-based; settings: human, HT-29 cells, read-out: relative viability (%) compared to untreated control; for viability at 48 h, 10 µM: HT-29, 10 µM
Procedure: as §1, §2, §3

[5] = WST-1 cytotoxicity test, PANC-1; assay type: cell-based; settings: human, PANC-1 cells, read-out: relative viability (%) compared to untreated control; for viability at 48 h, 10 µM: PANC-1, 10 µM
Procedure: as §1, §2, §3

[6] = WST-1 cytotoxicity test, A2780; assay type: cell-based; settings: human, A2780 cells, read-out: relative viability (%) compared to untreated control; for viability at 48 h, 10 µM: A2780, 10 µM
Procedure: as §1, §2, §3

[7] = WST-1 cytotoxicity test, HeLa; assay type: cell-based; settings: human, HeLa cells, read-out: relative viability (%) compared to untreated control
Procedure: as §1, §2, §3

[8] = WST-1 cytotoxicity test, MCF-7; assay type: cell-based; settings: human, MCF-7 cells, read-out: relative viability (%) compared to untreated control; for viability at 48 h, 10 µM: MCF-7, 10 µM
Procedure: as §1, §2, §3

[9] = WST-1 cytotoxicity test, SAOS-2; assay type: cell-based; settings: human, SAOS-2 cells, read-out: relative viability (%) compared to untreated control; for viability at 48 h, 10 µM: SAOS-2, 10 µM
Procedure: as §1, §2, §3

[10] = WST-1 cytotoxicity test, MRC-5; assay type: cell-based; settings: human, MRC-5 cells, read-out: relative viability (%) compared to untreated control; for viability at 48 h, 10 µM: MRC-5, 10 µM
Procedure: as §1, §2, §3

[11] = tested on: 10 human cell lines (nine cancer and one non-cancer cell line); assay: WST-1 cytotoxicity test, statements over all cell lines; assay type: cell-based; settings: 48 h
Procedure: as §1, §2, §3

[12] = tested on: A549 cells; assay: MTT assay, IC50 and MTC; settings: for MTC (maximum tolerated concentration): 24 h of treatment; for IC50: Homo sapiens, A549, 24 h, read-out: IC50 ± SEM
Procedure: In further experiments, MTT (3-(4,5-di-methylthiazol-2-yl)-2,5-diphenyltetrazolium bromide) assay was employed to evaluate the toxicological indexes of the newly synthesized compounds, including IC50 (half-maximal inhibitory concentration) and MTC (maximum tolerated concentration).
IC50 and MTC were determined through MTT assays. The MTT assay was performed according to [35]. In brief, the A549 cell line was plated in 96-well plates (100 µL, 9 × 10^3 cells per well) and incubated overnight. The tested compounds were prepared in phosphate buffer saline (PBS; Sigma–Aldrich) and serially diluted in DMEM (Dulbecco’s Modified Eagle Medium). An untreated control was included as a viability standard in each plate. After 24 h of treatment, the viability of A549 cells was measured at 570 nm. All experiments were performed in triplicate. The GraphPad Prism statistics software v5.04 (GraphPad Software Inc., San Diego, CA, USA) was used to calculate the IC50 values for parameter nonlinear regression. Values are expressed as mean ± SEM.

[13] = WST-1 cytotoxicity test, statements over all cell lines; assay type: cell-based, human; settings: human, 10 µM, across all the 10 cell lines tested, read-out: percentage of viable cells
Procedure: as §1, §2, §3

[14] = 48 h, WST-1, mean ± SD of three experiments
[15] = 100 µM, 48 h, WST-1, mean ± SD of three experiments
[16] = doxorubicin 1 µM cytotoxicity control, WST-1, mean ± SD

| SMILES | viability at 48 h, 10 µM [1, 14] | viability at 48 h, 10 µM [2, 14] | viability at 48 h, 10 µM [3, 14] | viability at 48 h, 10 µM [4, 14] | viability at 48 h, 10 µM [5, 14] | viability at 48 h, 10 µM [6, 14] | viability at 48 h, 10 µM [7, 14] | viability at 48 h, 10 µM [8, 14] | viability at 48 h, 10 µM [9, 14] | viability at 48 h, 10 µM [10, 14] | melting point | MTC (maximum tolerated concentration) ([12]; A549 cells, MTT) | IC50 [12] | other results |
| --- | --- | --- | --- | --- | --- | --- | --- | --- | --- | --- | --- | --- | --- | --- |
| COc1ccc2nc3c(c(NCCN4CCN(CCO)CC4)c2c1)CCCC3.Cl.Cl.Cl [Compound 3, 7-Methoxy-N-{2-[4-(2-hydroxyethyl)piperazin-1-yl]ethyl}-1,2,3,4-tetrahydroacridin-9-amine trihydrochloride] | 95 ± 9% | 81 ± 13% | 94 ± 15% | 85 ± 11% | 78 ± 6% | 84 ± 7% | 104 ± 13% | 84 ± 9% | 80 ± 4% | 84 ± 2% | 157 to 158 °C | 0.01 mM | 140 ± 10 µM | viability at 48 h, 100 µM [1, 15]: 12 ± 5%; viability at 48 h, 100 µM ([2]; MOLT-4, 100 µM, 48 h, WST-1, mean ± SD of three experiments): 2%; viability at 48 h, 100 µM ([3]; A549, 100 µM, 48 h, WST-1, mean ± SD of three experiments): 13 ± 2%; viability at 48 h, 100 µM ([4]; HT-29, 100 µM, 48 h, WST-1, mean ± SD of three experiments): 14 ± 5%; viability at 48 h, 100 µM ([5]; PANC-1, 100 µM, 48 h, WST-1, mean ± SD of three experiments): 30 ± 4%; viability at 48 h, 100 µM ([6]; A2780, 100 µM, 48 h, WST-1, mean ± SD of three experiments): 20 ± 5%; viability at 48 h, 100 µM [7, 15]: 11 ± 3%; viability at 48 h, 100 µM ([8]; MCF-7, 100 µM, 48 h, WST-1, mean ± SD of three experiments): 10 ± 2%; viability at 48 h, 100 µM ([9]; SAOS-2, 100 µM, 48 h, WST-1, mean ± SD of three experiments): 10 ± 2%; viability at 48 h, 100 µM ([10]; MRC-5, 100 µM, 48 h, WST-1, mean ± SD of three experiments): 9 ± 6%; decrease of cell viability ([11]; 100 µM, all the tested cell lines): ≥ 70%; cytotoxic effect (in words) ([11]; 100 µM, studied cell lines): highly cytotoxic; IC50 fold higher than that for compound 2 ([12]; A549 cells, MTT): 3.5 fold |
| COc1ccc2nc3c(c(NCCN4CCNCC4)c2c1)CCCC3.Cl.Cl.Cl [Compound 2, 7-Methoxy-N-(2-(piperazin-1-yl)ethyl)-1,2,3,4-tetrahydroacridin-9-amine trihydrochloride] | 31 ± 14% | 0% | 27 ± 3% | 28 ± 6% | 39 ± 2% | 44 ± 9% | 25 ± 1% | 15 ± 1% | 28 ± 2% | 23 ± 2% | 172 to 173 °C | 0.002 mM | 40 ± 2 µM | viability at 48 h, 10 µM [13]: < 44%; cytotoxic effect (in words) ([11]; 10 µM, tested cell lines): highly cytotoxic |
| COc1cccc2c1C(=O)c1c(O)c3c(c(O)c1C2=O)C[C@@](O)(C(=O)CO)C[C@@H]3O[C@H]1C[C@H](N)[C@H](O)[C@H](C)O1 [DOX, doxorubicin, reference compound] |  |  |  |  |  |  |  |  |  |  |  |  |  | viability at 48 h, 1 µM [1, 16]: 2%; viability at 48 h, 1 µM ([2]; MOLT-4, doxorubicin 1 µM cytotoxicity control, WST-1, mean ± SD): 1%; viability at 48 h, 1 µM ([3]; A549, doxorubicin 1 µM cytotoxicity control, WST-1, mean ± SD): 42 ± 11%; viability at 48 h, 1 µM ([4]; HT-29, doxorubicin 1 µM cytotoxicity control, WST-1, mean ± SD): 55 ± 18%; viability at 48 h, 1 µM ([5]; PANC-1, doxorubicin 1 µM cytotoxicity control, WST-1, mean ± SD): 78 ± 7%; viability at 48 h, 1 µM ([6]; A2780, doxorubicin 1 µM cytotoxicity control, WST-1, mean ± SD): 8 ± 4%; viability at 48 h, 1 µM [7, 16]: 76 ± 12%; viability at 48 h, 1 µM ([8]; MCF-7, doxorubicin 1 µM cytotoxicity control, WST-1, mean ± SD): 32 ± 3%; viability at 48 h, 1 µM ([9]; SAOS-2, doxorubicin 1 µM cytotoxicity control, WST-1, mean ± SD): 22 ± 4%; viability at 48 h, 1 µM ([10]; MRC-5, doxorubicin 1 µM cytotoxicity control, WST-1, mean ± SD): 22 ± 2% |
